{"source": "patent US20130210024A1", "about": "“COMBINATION TREATMENT OF CANCER” (Agency for Science, Technology and Research, priority 2010, published 2013)", "key": {"U2OS cells": {"tested_on": "U2OS cells", "assay": "FACS cell cycle / apoptosis analysis in U2OS cells, EZH2 RNA interference plus ADR or ETO", "assay_type": "cell-based, human", "settings": "control (non-knockdown) U2OS cells treated with the DNA damaging agent alone; FIG. 1A", "description": "(§1) The human colorectal cancer HCT116 cells were kindly provided by Dr. Bert Vogelstein (John Hopkins University, MD). Other cell lines used in this study, including human osteosarcoma U2OS and Saos-2 and breast cancer MCF7 were obtained from the American Type Culture Collection (ATCC) and maintained in Dulbecco's modified Eagle medium (DMEM) supplemented with 10% fetal bovine serum (FBS) and antibiotics in a 37° C. humidified incubator containing 5% CO2. Human breast epithelial MCF10A cells were obtained from ATCC and maintained as recommended (Kadota et al 2010). Adramycin (ADR), Etopside (ETO), Nocodazole (Noco), proteasomal inhibitors MG132 and MG115 were purchased from Sigma-Aldrich.\nSpecific siRNA oligos targeting EZH2 (as described above) and FBXO32 (FBXO32 siRNA: 5_-GTCACATCCTTTCCTGGAA-3_) mRNAs were used. The non-targeting control was purchased from Dharmacon (Lafayett, Colo.). For EZH2 knockdown, a sequential twice knockdown is performed to secure efficient gene silencing. […]\nCells were harvested and fixed in 70% ethanol. […] The stained cells were analyzed for DNA content by fluorescence-activated cell sorting (FACS) in a FACS Calibur (Becton Dickinson Instrument, San Jose, Calif.). Cell cycle fractions were quantified using the CellQuest software (Becton Dickinson). […]"}, "[1]": {"tested_on": "U2OS, HCT116, Saos-2 and p53-deficient HCT116 cells", "assay": "FACS cell cycle / apoptosis analysis, DZNep combined with ADR or ETO in cancer cells", "assay_type": "cell-based, human", "description": "as §1\n(§2) Cells were harvested and fixed in 70% ethanol. Fixed cells were stained with propidium iodide (50 μg/mL) after treatment with RNase (100 μg/mL). The stained cells were analyzed for DNA content by fluorescence-activated cell sorting (FACS) in a FACS Calibur (Becton Dickinson Instrument, San Jose, Calif.). Cell cycle fractions were quantified using the CellQuest software (Becton Dickinson). For synchronization experiment, HCT116 cells expressing FBXO32 or empty vector were treated with Nocodazole (400 ng/ml) for 16 h, mitotically arrested cells were treated with ADR and then subject to FACS for cell cycle analysis."}, "[2]": {"tested_on": "non-transformed MCF-10A, IMR90 and RWEP cells", "assay": "ADR or ETO-induced apoptosis in non-transformed cells with DZNep", "assay_type": "cell-based, human", "settings": "data not shown", "description": "as §1, §2"}, "EZH2 complex": {"tested_on": "EZH2 complex", "settings": "cancer cells; previously shown (Tan et al., 2007); cited from earlier work"}, "FBXO32, p21, p-Chk1": {"tested_on": "FBXO32, p21, p-Chk1", "assay": "Immunoblot analysis of FBXO32, p21 and Chk1 phosphorylation after DZNep with ADR or ETO", "assay_type": "cell-based, human", "description": "as §1\nProtein extracts were prepared by lysis in RIPA buffer containing (50 mM Tris-HCl, pH 7.4, 150 mM NaCl, 1% Nonidet P-40, 0.5% sodium deoxycholate, 0.1% SDS, 1 mM EDTA, 50 mM NaF, 0.1 mM Na3VO4) and protease inhibitor cocktail (Roch). Lysates were resolved by SDS-PAGE, transferred onto a immobilon membrane (Millipore) and probed with indicated antibodies. For co-immunoprecipitation experiments, cells were lysed and incubated with the indicated antidodies and protein G-seperose beads overnight at 4° C. Beads were washed four times with lysis buffer. The bound proteins were dissolved in SDS sample buffer, resolved by SDS-PAGE, and immunoblotted with the indicated antibodies. Where indicated, proteosome inhibitors MG-132 (5 μM) or MG-115 (20 μM) were used to treat cells for 8 h before protein extraction. Antibodies used in this study include: anti-EZH2 (Cell Signaling), anti-p21 (Santa Cruz), anti-FBXO32 (Santa Cruz), anti-p53 (Santa Cruz), anti-MDM2 (Santa Cruz), anti-phospho-Chk1 (Cell signaling), anti-Chk1 (Santa Cruz), anti-phospho-Chk2 (Cell signaling), anti-Chk2 (Upstate), anti-H3 (Cell signaling), anti-PARP (Cell Signaling), anti-H3K27me3 (Upstate), anti-actin mouse monoclonal (Sigma)."}, "p21 mRNA": {"tested_on": "p21 mRNA", "assay": "p21 mRNA level (Taqman quantitative real-time PCR)", "assay_type": "cell-based, human", "settings": "DZNep with ADR or ETO; data not shown", "description": "Total RNA was isolated using Trizol (Invitrogen) and purified with the RNeasy Mini Kit (Qiagen). Reverse transcription was performed using an RNA Amplification kit (Ambion). Quantitative real-time PCR was assessed using the PRISM 7900 Sequence Detection System (Applied Biosystems) with specific probes from Applied Biosystem. Samples were normalized to the levels of GAPDH mRNA."}}, "note": "Residues, ends and D or L forms follow the SMILES beside them. *: point of attachment. Cbz = O=C(OCc1ccccc1)*"}
{"compound": "COc1cccc2c1C(=O)c1c(O)c3c(c(O)c1C2=O)C[C@@](O)(C(=O)CO)C[C@@H]3O[C@H]1C[C@H](N)[C@H](O)[C@H](C)O1", "note": "[Adriamycin]", "values": [{"measurement": "cell cycle arrest / apoptosis in control cells", "setting": "U2OS cells", "value": "mainly cell cycle arrested with little apoptosis"}]}
{"compound": "Nc1nccc2c1ncn2[C@@H]1C=C(CO)[C@@H](O)[C@H]1O", "note": "[DZNep, 3-Deazaneplanocin A]", "values": [{"measurement": "effect of DZNep on DNA damage-induced apoptosis, p21 and p-Chk1 when FBXO32 is knocked down", "setting": "[1]; HCT116 cells with FBXO32 knockdown, FIGS. 4E, 4F", "value": "largely abolished when FBXO32 was knockdown"}, {"measurement": "checkpoints activation (FACS)", "setting": "[1]; combination of DZNep with ADR or ETO, HCT116 or U2OS cells, FIG. 4A", "value": "abrogates checkpoints activation"}, {"measurement": "checkpoints (FACS), p53-deficient cells", "setting": "[1]; combination of DZNep with ADR or ETO, p53-deficient HCT116 or Saos-2 cells, FIG. 4C", "value": "abrogates checkpoints"}, {"measurement": "effect on ADR or ETO-induced cell cycle arrest / apoptosis", "setting": "[1]; pretreatment with DZNep, then ADR or ETO, p53-proficient U2OS and HCT116, p53-deficient Saos-2 and HCT116 cells, FIGS. 4A, 4C", "value": "converted ADR or ETO-induced cell cycle arrest to marked apoptosis"}, {"measurement": "promotion of ADR or ETO-induced apoptosis in non-transformed cells", "setting": "[2]", "value": "did not promote"}, {"measurement": "depletion of EZH2 complex", "setting": "EZH2 complex", "value": "can deplete EZH2 complex"}, {"measurement": "p21 and/or p-Chk1 induction by ADR or ETO", "setting": "FBXO32, p21, p-Chk1; DZNep with ADR or ETO, U2OS, HCT116, Saos-2, p53-deficient HCT116, FIGS. 4B, 4D", "value": "largely abolished"}, {"measurement": "FBXO32 induction", "setting": "FBXO32, p21, p-Chk1; EZH2 depletion by DZNep, U2OS, HCT116, Saos-2, p53-deficient HCT116, FIGS. 4B, 4D", "value": "accompanied with FBXO32 induction"}, {"measurement": "ADR or ETO-induced p21 accumulation and Chk1 phosphorylation", "setting": "FBXO32, p21, p-Chk1; combination of DZNep with ADR or ETO, HCT116 and U2OS cells, FIG. 4B", "value": "abolishes"}, {"measurement": "DNA damage induced p21 accumulation and Chk1 phosphorylation, p53-deficient cells", "setting": "FBXO32, p21, p-Chk1; combination of DZNep with ADR or ETO, p53-deficient HCT116 and Saos-2 cells, FIG. 4D", "value": "abolishes"}, {"measurement": "p21 mRNA as cause of p21 protein downregulation", "setting": "p21 mRNA", "value": "not due to a decrease in p21 mRNA"}]}
{"compound": "COc1cc([C@@H]2c3cc4c(cc3[C@@H](O[C@@H]3O[C@@H]5CO[C@@H](C)O[C@H]5[C@H](O)[C@H]3O)[C@H]3COC(=O)[C@H]23)OCO4)cc(OC)c1O", "note": "[Etoposide]", "values": [{"measurement": "cell cycle arrest / apoptosis in control cells", "setting": "U2OS cells", "value": "mainly cell cycle arrested with little apoptosis"}]}
{"compound": "CC(C)C[C@@H](C=O)NC(=O)[C@H](CC(C)C)NC(=O)[C@H](CC(C)C)NC(=O)OCc1ccccc1", "note": "[MG132] (Cbz-Leu-Leu-Leu-aldehyde)", "values": [{"measurement": "p21 protein downregulation by DZNep with ADR or ETO, effect of proteasome inhibitor", "setting": "FBXO32, p21, p-Chk1; MG132 added, data not shown", "value": "prevented"}]}
